Source: patent US12366579B2, “Sulfur-heterocycle exchange chemistry and uses thereof” (University of Virginia Patent Foundation, priority 2019, dated 2025)

Key:
[1] = tested on: HEK293T soluble proteomes; assay: LC-MS chemical proteomics of probe-modified sites in cell proteomes; assay type: binding, human
Experimental: Proteomes were diluted to 2.3 mg/mL in PBS and sample aliquots (432 μL) were treated with sulfonyl-triazole or -fluoride probes at the indicated concentrations (5 μL, 100× stock in DMSO), mixed gently and incubated for 1 h at room temperature. Probe-modified proteomes were subjected to CuAAC conjugation to desthiobiotin-PEG3-azide (10 μL of 10 mM stock in DMSO; final concentration of 200 μM) using TCEP (10 μL of fresh 50 mM stock in water; 1 mM final concentration), TBTA ligand (33 μL of a 1.7 mM 4:1 t-butanol/DMSO stock, 100 μM final concentration), and CuSO4 (10 μL of 50 mM stock, 1 mM final concentration). Samples were mixed by vortexing and then incubated for 1 h at room temperature. Excess reagents were removed by chloroform-methanol extraction as previously described^51. Protein pellets were re-suspended in 500 μL of 6M urea/25 mM ammonium bicarbonate followed by DTT reduction and IAA alkylation as previously described^5. Excess reagents were removed by chloroform/methanol extraction as described above, and the protein pellet was re-suspended in 500 μL of 25 mM ammonium bicarbonate and then digested to peptides using trypsin/Lys-C (7.5 μg in 15 μL of ammonium bicarbonate, sequencing grade from Promega, Madison, Wisconsin, United States of America) was added to the mixture and incubated for 3 hrs at 37° C. Probe-modified peptides were enriched by avidin affinity chromatography, eluted, and prepared for LC-MS analysis as previously described^51.
A top 10 data-dependent acquisition MS method was used.
Sulfonyl-probe modifications of tyrosine, lysine, and other amino acids were included as a variable (common) modification of +635.27374 Da. […] A Byonic score of 300 was applied for a more inclusive initial evaluation of the search results and thereby consider more possible probe-modified sites. MS1 and MS2 spectra corresponding to the highest-scoring tyrosine- and lysine (internal or non-C terminal)-modified sequences (˜50-100 peptides) were manually verified. […] Distinct peptides containing probe-modified amino acid residues (termed sites) were determined by identifying all unique razor protein and site combinations across all of the proteomes tested.
To compare amino acid residues modified by sulfonyl probes, protein and peptide identifications were accomplished as described above with variable (common) modification of +635.27374 Da on the following amino acid residues: cysteine, aspartic acid, glutamic acid, histidine, lysine, methionine, asparagine, glutamine, arginine, serine, threonine, tryptophan, and tyrosine. For these amino acid comparisons, carbamidomethylation (+57.021464 Da) of cysteines was searched as a variable/common modification to allow for the potential of probe modification on cysteines. Comparisons of probe-modified sites across all probes and cell lines tested were performed using the R package ggplot2 (online at tidyverse.org). Venn diagrams for comparisons were generated using the VennDiagram R package^52.
Proteomes were digested with trypsin protease and desthiobiotin-modified peptides enriched by avidin affinity chromatography, released, and analyzed by high-resolution liquid chromatography-mass spectrometry (LC-MS). Probe-modified peptide-spectrum matches (PSMs) that met a quality control confidence criteria of ≥300 Byonic score^31 and ≤5 ppm mass accuracy were selected for further manual evaluation.

[2] = HPLC assay, p-cresol reactivity against a sulfonyl probe mixture; assay type: physicochemical; conditions: TMG 1.1 equivalents, 0° C.
Experimental: The following reagents were prepared and kept at 0° C. prior to use: 0.1 M solution of caffeine in acetonitrile (ACN), 1.0 M solution of n-butylamine, p-cresol, tetramethylguanidine (TMG), acetic acid in ACN, and 10 mM solution of the probes in a mixture of DMF-ACN (v/v=10:90) are made.
(i) p-Cresol reactivity against a probe mixture: A solution of p-cresol (16.5 μmol, 3.3 eq) was premixed with 1.1, 2.2, or 3.3 eq of TMG. To initiate the reaction, the p-cresol/TMG solution was added to a sulfonyl probe mixture of HHS-475/HHS-482/HHS-SF-1 (500 μL, 5 μmol, 1.0 eq each) and the reaction was kept at 0° C. The reaction progress was monitored by taking out a 50.0 μL aliquot of the reaction mixture at various time points followed by addition of a 10 μL quenching solution of acetic acid (0.5 M final, 5.0 μmol) and the internal caffeine standard (0.05 M final, 0.5 μmol). Sample (1.0 μL) was injected and analyzed by reverse-phase HPLC on a Shimadzu 1100 Series spectrometer (Shimadzu, Kyoto, Japan) with UV detection at 254 nm. Reaction progress was evaluated by monitoring consumption of sulfonyl probes because all probes generate a shared p-cresol and n-butylamine product. Chromatographic separation was performed using a Phenomenex Kinetex C18 column (2.6 μm, 50 mm×4.6 mm, Phemonenex, Torrance, California, United States of America). […]

C#CCNC(=O)c1ccc(S(=O)(=O)n2cncn2)cc1 [HHS-475, 4-((1H-1,2,4-Triazol-1-yl)sulfonyl)-N-(prop-2-yn-1-yl)benzamide]
unique-modified tyrosine sites among 1,2,4-SuTEx probes ([1]; FIG. 4D): 391 sites | tyrosine specificity, Y/K ratio of modified sites ([1]; LC-MS chemical proteomics, FIG. 4A): 2.8 | time to consumption of probe by p-cresol [2]: ≤ 30 min
